{
  "source": "paper PMC3838870",
  "about": "(Journal of inorganic biochemistry, 2013)",
  "key": {"[1]": {"assay": "Chelator-induced erythrocyte hemolysis", "format": "cell-based, human", "settings": "human, human erythrocyte suspension, pH 7.4"}, "[2]": {"test_system": "chloroquine-sensitive (3D7) Plasmodium falciparum", "assay": "Parasite growth inhibition, [3H]-hypoxanthine incorporation, 3D7", "format": "cell-based"}, "[3]": {"test_system": "chloroquine-resistant (7G8) Plasmodium falciparum", "settings": "read-out: Growth inhibition efficacy (IC50), 7G8 P. falciparum; chloroquine-resistant 7G8, mean ± SD (n = 6); previously reported; cited from earlier work"}, "[4]": {"test_system": "chloroquine-sensitive (3D7) Plasmodium falciparum", "settings": "read-out: IC50, 3D7 malaria strain; cited from earlier work"}, "[5]": {"test_system": "non-parasitized human erythrocytes", "assay": "Effect of chelators on erythrocyte shape", "format": "cell-based", "settings": "2.5–15 μM chelator, 48 h, Giemsa staining"}, "[6]": {"test_system": "human erythrocytes", "assay": "Chelator-induced erythrocyte hemolysis", "format": "cell-based", "settings": "control 0.0175± 0.0005"}, "[7]": {"test_system": "synchronized chloroquine-sensitive P. falciparum (3D7)", "assay": "Stage-specific parasite growth", "format": "cell-based, Plasmodium falciparum", "settings": "chelator 7.5 μM, 3D7 synchronized at ring-stage"}},
  "note": "Where two headings read alike, the source gives them in different places.",
  "data": [
    {"smiles": "CC(=O)N(O)CCCCCNC(=O)CCC(=O)N(O)CCCCCNC(=O)CCC(=O)N(O)CCCCCN", "note": "[DFO, desferrioxamine]", "values": [
      {"measurement": "hemolysis at 10 μM", "setting": "[1]", "result": "0.0193 ± 0.0005", "unit": "%"},
      {"measurement": "hemolysis at 20 μM", "setting": "[1]", "result": "0.0182 ± 0.0005", "unit": "%"},
      {"measurement": "hemolysis at 30 μM", "setting": "[1]", "result": "0.0186 ± 0.0008", "unit": "%"},
      {"measurement": "hemolysis at 45 μM", "setting": "[1]", "result": "0.0192 ± 0.0001", "unit": "%"},
      {"measurement": "hemolysis at 60 μM", "setting": "[1]", "result": "0.0182 ± 0.0002", "unit": "%"},
      {"measurement": "IC50", "setting": "[2]; Plasmodium falciparum, 3D7, 48 h, read-out: Growth inhibition efficacy (IC50), 3D7 P. falciparum", "result": "23.4 ± 3.4", "unit": "µM"},
      {"measurement": "IC50", "setting": "[2]; Plasmodium falciparum, 3D7, 48 h, read-out: Growth inhibition efficacy (IC50), 3D7 P. falciparum, chloroquine-sensitive 3D7, 48 h culture, mean ± SD (n = 6)", "result": 23.5, "unit": "µM"},
      {"measurement": "IC50", "setting": "[3]", "result": 18.5, "unit": "µM"}
    ]},
    {"smiles": "Cc1ncc(CO)c(/C=N/NC(=O)c2ccncc2)c1O", "note": "[PIH, pyridoxal isonicotinoyl hydrazone]", "values": [
      {"measurement": "hemolysis at 10 μM", "setting": "[1]", "result": "0.0195 ± 0.0004", "unit": "%"},
      {"measurement": "hemolysis at 15 μM", "setting": "[1]", "result": "0.0188 ± 0.0003", "unit": "%"},
      {"measurement": "hemolysis at 20 μM", "setting": "[1]", "result": "0.019 ± 0.0006", "unit": "%"},
      {"measurement": "hemolysis at 25 μM", "setting": "[1]", "result": "0.0193 ± 0.0004", "unit": "%"},
      {"measurement": "hemolysis at 30 μM", "setting": "[1]", "result": "0.0192 ± 0.0008", "unit": "%"},
      {"measurement": "IC50", "setting": "[4]", "result": 50, "unit": "µM"}
    ]},
    {"smiles": "O=C(NN=Cc1c(O)ccc2ccccc12)c1ccncc1", "note": "[compound 311, 2-hydroxy-1-naphthylaldehyde isonicotinoyl hydrazone]", "values": [
      {"measurement": "Effect on erythrocyte shape", "setting": "[5]", "result": "no apparent effect on erythrocyte shape"},
      {"measurement": "Supernatant hemoglobin, % MCHC (hemolysis)", "setting": "[6]; chelator 0.5 μM", "result": "0.0193±0.0005", "unit": "% MCHC"},
      {"measurement": "Supernatant hemoglobin, % MCHC (hemolysis)", "setting": "[6]; chelator 1 μM", "result": "0.0195±0.0010", "unit": "% MCHC"},
      {"measurement": "Supernatant hemoglobin, % MCHC (hemolysis)", "setting": "[6]; chelator 1.5 μM", "result": "0.0200±0.0006", "unit": "% MCHC"},
      {"measurement": "Supernatant hemoglobin, % MCHC (hemolysis)", "setting": "[6]; chelator 2 μM", "result": "0.0203±0.0005", "unit": "% MCHC"},
      {"measurement": "Supernatant hemoglobin, % MCHC (hemolysis)", "setting": "[6]; chelator 3 μM", "result": "0.0197±0.0005", "unit": "% MCHC"},
      {"measurement": "IC50", "setting": "[2]; read-out: Growth inhibition efficacy (IC50), 3D7 P. falciparum, chloroquine-sensitive 3D7, 48 h culture, mean ± SD (n = 6)", "result": "4.45 ± 1.7", "unit": "µM"},
      {"measurement": "% Inhibition, rings, 24 hour culture", "setting": "[7]", "result": "99 ± 8.4", "unit": "%"},
      {"measurement": "IC50", "setting": "[3]", "result": "4.46 ± 0.3", "unit": "µM"}
    ]}
  ]
}
